For experiment [1], the target named is FR1 (Homo sapiens, UniProt P15328). To be noted: read-out: affinity for FR1; cited from earlier work.
Experiment [2] has as its target FR2 (Homo sapiens, UniProt P14207). To be noted: read-out: affinity for FR2; cited from earlier work.
Experiment [3] has as its system 22RV1 cells. Kind of experiment: FPN expression after hepcidin therapy. The format is cell-based. The text has this:
As a followup, eight different genomic datasets available for prostate cancer on cBioPortal (www.cbioportal.org) containing whole genome data from 1229 prostate cancer patients were mined for analysis. […] FACS and Western Blotting confirmed higher expression of FPN in 22RV1 compared to DU145 (FIG. 7, panel C). […] In 22RV1 cells with higher FPN higher levels of erastin were required compared to DU145 cells with low FPN (FIG. 7, panel E).

The test system of experiment [4] is LNCaP xenografts. Kind of experiment: LNCaP prostate cancer xenografts. The format is in vivo. On the procedure:
Each of the photographs in FIG. 6, panel C and panel D depicts a representative animal treated with vehicle (FIG. 6, panel C) or bortezomib-loaded FH (1.0 mM) (FIG. 6, panel D).
Studies in breast cancer described a “low intracellular iron” phenotype, characterized by high ferroportin, which was associated with good prognosis. In contrast, the “high intracellular iron” phenotype, characterized by low ferroportin and high hepcidin, was associated with a poor prognosis (Pinnix et al. (2010), Sci. Transl. Med., 2(43): 43ra56). Recently, a similar observation was made in prostate cancer (Tesfay et al. (2015) Cancer Res., 75(11):2254-63. To extend the analysis to prostate cancer, LNCaP prostate cancer xenografts were treated with FH-loaded bortezomib (a ROS-inducing drug).
FH alone was able to decrease tumor volume by about 33% (panel b). […] Free bortezomib was not effective, but when loaded into FH a significant therapy effect was achieved as shown in (panels a and b). Importantly, FH alone also exerted an effect, decreasing tumor volume. Each of the photographs in panel c and panel d depicts a representative animal treated with vehicle (panel c) or bortezomib-loaded FH (1.0 mM) (panel d).

Ends that are not written are not given here.

We go through three molecules from patent publication US20180296595A1, “METHODS AND COMPOSITIONS FOR CANCER TREATMENT” (Memorial Sloan Kettering Cancer Center, priority 2015, published 2018).

FR1, sequence (P15328 25-234): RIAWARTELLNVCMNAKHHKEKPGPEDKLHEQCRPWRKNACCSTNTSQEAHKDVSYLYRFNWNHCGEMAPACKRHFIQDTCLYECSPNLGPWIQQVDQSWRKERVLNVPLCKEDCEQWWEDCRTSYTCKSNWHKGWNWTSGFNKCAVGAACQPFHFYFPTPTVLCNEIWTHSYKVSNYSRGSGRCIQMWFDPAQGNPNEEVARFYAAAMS
FR2, sequence (P14207 17-230): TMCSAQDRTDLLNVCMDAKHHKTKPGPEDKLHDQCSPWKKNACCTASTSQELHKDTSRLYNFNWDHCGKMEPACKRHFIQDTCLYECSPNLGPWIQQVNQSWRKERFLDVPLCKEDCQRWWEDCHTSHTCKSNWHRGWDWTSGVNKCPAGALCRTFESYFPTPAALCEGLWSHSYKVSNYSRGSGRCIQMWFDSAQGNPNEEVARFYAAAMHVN

`CN1c2c(nc(N)[nH]c2=O)NC[C@@H]1CNc1ccc(C(=O)N[C@@H](CCC(=O)O)C(=O)O)cc1` [6S 5-methyltetrahydrofolate]: the Kd in experiment [1] is 55 nM; in experiment [2] it was 1 nM. Turning to “hepcidin (DTHFPICIFCCGCCHRSKCGMCCKT; ends and bridges not checked; cysteine pairing not given here; UniProt P81172 60-84, looked up) [peptide hormone, key regulator of iron homeostasis]”, the “FPN on the cell surface” value in experiment [3] is listed as “lowered FPN on the cell surface”. As for `CC(C)C[C@H](NC(=O)[C@H](Cc1ccccc1)NC(=O)c1cnccn1)B(O)O` [bortezomib], the therapeutic effect result in experiment [4] is reported as “not effective”.
